From ChEMBL document CHEMBL1201862, “PubChem BioAssay data set” (2004) come the findings set out here.

Among the test systems are ACHN; COLO 205; HCT-15; HT-29; IGROV-1; MDA-MB-231; Malme-3M; NCI/ADR-RES; OVCAR-3; OVCAR-5; OVCAR-8; SF-268; SF-539; SK-MEL-5; SN12C; SNB-19; SR; TK-10; U-251; UO-31.
Common to all, as to assay: DTP human tumour cell line panel, 48 h

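Following 48 hours of exposure in 96-well plates, responses at five concentrations were used to interpolate endpoints linearly. GI50 marks 50% less growth.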 Activity calls are given as the source filed them. Rule as the data show it: active = GI50 up to about 1.1 µM and inactive = higher.

For orientation: GI50 means the concentration giving 50% growth inhibition. In the case of `Cc1ccc(C2SC(=N)Nc3c2c(C)nn3C(=O)c2ccc(Cl)cc2)cc1` (stereo not given), the GI50 is > 10 µM (inactive) in the test with ACHN; > 10 µM (inactive) in the test on COLO 205; more than 10 µM with HCT-15; > 10 µM (inactive) in the test with HT-29; > 10 µM (inactive) in the test on IGROV-1; > 10 µM (inactive) in the test on MDA-MB-231. For the same compound, the GI50 in the test on Malme-3M, with NCI/ADR-RES, in the test on OVCAR-3, in the test on OVCAR-5, in the test with OVCAR-8 and with SF-268 was > 10 µM (inactive) throughout. Further, the GI50 in the test with SF-539, in the test on SK-MEL-5, in the test on SN12C, in the test with SNB-19, in the test on SR and in the test with TK-10 was > 10 µM (inactive) in each case. For the same compound, the GI50 in the test on U-251 is > 10 µM (inactive).
For the compound `Cc1c(C(=O)O)n2c(S)nnc2c2ccccc12`, the GI50 with ACHN is > 100 µM (inactive); in the test with COLO 205 it was > 100 µM (inactive); with HCT-15, more than 100 µM; in the test with HT-29, > 100 µM (inactive); in the test on IGROV-1 it was > 100 µM (inactive); in the test with MDA-MB-231 it was > 100 µM (inactive). The GI50 with NCI/ADR-RES, in the test on OVCAR-3, in the test with OVCAR-5, in the test on OVCAR-8, in the test on SF-268 and in the test on SF-539 was > 100 µM (inactive) each time. Besides, the GI50 in the test with SK-MEL-5, with SN12C, in the test with SNB-19, with SR, in the test on TK-10 and in the test on U-251 was > 100 µM (inactive) throughout. The GI50 with UO-31 is > 100 µM (inactive).
As to `CC(=O)OCCC[C@@H]1C(=C(C)C)CCC2[C@@]1(C)CC[C@@]1(C)C[C@](C)(CCC=C(C)C)CC[C@]21C` (stereo not given in full), the GI50 in the test with ACHN is > 100 µM (inactive); with COLO 205, > 100 µM (inactive); in the test on HCT-15 it was more than 100 µM; in the test on HT-29, > 100 µM (inactive); with IGROV-1 it was > 100 µM (inactive); in the test with MDA-MB-231, > 100 µM (inactive). In addition, the GI50 in the test on Malme-3M, in the test on NCI/ADR-RES, in the test on OVCAR-3, with OVCAR-5, in the test with OVCAR-8 and in the test on SF-268 was > 100 µM (inactive) each time. The GI50 was > 100 µM (inactive) with SF-539; > 100 µM (inactive) in the test with SK-MEL-5; > 100 µM (inactive) in the test with SN12C; > 100 µM (inactive) in the test on SNB-19; < 0.01 µM (active) with TK-10; > 100 µM (inactive) in the test on U-251. In addition, in the test on UO-31, the GI50 is 13.5 µM (inactive).
Take `FC1(F)SC2CCCCCCCCCCC2C1(F)F` (stereo not given): the GI50 in the test on ACHN is 25.3 µM (inactive); in the test with COLO 205, 18.6 µM (inactive); in the test with HCT-15, 42.5 µM; in the test on HT-29, 29.7 µM (inactive); with IGROV-1, 76 µM (inactive); in the test with MDA-MB-231, 22.8 µM (inactive). Also, the GI50 was 21.8 µM (inactive) with Malme-3M; 63.4 µM (inactive) in the test with NCI/ADR-RES; 18.5 µM (inactive) in the test with OVCAR-3; 47.5 µM (inactive) in the test with OVCAR-5; 40.9 µM (inactive) in the test with OVCAR-8; 29.2 µM (inactive) in the test on SF-268. The GI50 in the test on SK-MEL-5 is 32.9 µM (inactive); in the test on SNB-19, > 100 µM (inactive); in the test on SR it was 67.5 µM (inactive); in the test with TK-10 it was 56.2 µM (inactive); with U-251, 28.5 µM (inactive); with UO-31, 78.2 µM (inactive).
Consider `Cc1nc(NC(C)(CO)CO)nc(N/N=C/c2ccc(Cl)cc2)c1C(=O)Nc1ccc(Cl)cc1`, for which the GI50 with ACHN is 47.9 µM (inactive); in the test on COLO 205 it was > 100 µM (inactive); with HCT-15, more than 100 µM; with HT-29, > 100 µM (inactive); with IGROV-1 it was > 100 µM (inactive); in the test with MDA-MB-231, > 100 µM (inactive). The GI50 in the test on Malme-3M, in the test with NCI/ADR-RES, in the test with OVCAR-3, in the test with OVCAR-5, in the test with OVCAR-8 and in the test on SF-268 was > 100 µM (inactive) throughout. The GI50 is > 100 µM (inactive) in the test with SF-539; > 100 µM (inactive) in the test with SN12C; > 100 µM (inactive) in the test with SNB-19; > 10 µM (inactive) with SR; > 100 µM (inactive) in the test on TK-10; 74.8 µM (inactive) in the test on U-251. Also, the GI50 with UO-31 was > 100 µM (inactive).
For `Cc1cc2nn(C3CCCO3)nc2cc1C` (stereo not given), the GI50 in the test on COLO 205 is > 100 µM (inactive); with HCT-15, more than 100 µM; with HT-29, > 100 µM (inactive); in the test with IGROV-1 it was > 100 µM (inactive); with MDA-MB-231, > 100 µM (inactive); in the test on Malme-3M it was > 100 µM (inactive). Besides, the GI50 in the test on NCI/ADR-RES, in the test on OVCAR-3, in the test with OVCAR-5, in the test on OVCAR-8, in the test on SF-268 and in the test with SF-539 was > 100 µM (inactive) in each case. For the same compound, the GI50 in the test with SK-MEL-5, with SN12C, in the test with SR, in the test on TK-10 and in the test with U-251 was > 100 µM (inactive) in each case.
For `O=S1(=O)c2ccccc2-c2nccc3ccnc1c23`, the GI50 is 8.57 µM (inactive) in the test with ACHN; 3.99 µM (inactive) with COLO 205; 7.87 µM in the test on HCT-15; 5.58 µM (inactive) in the test with HT-29; 7.67 µM (inactive) with IGROV-1; 17.8 µM (inactive) in the test on MDA-MB-231. For the same compound, the GI50 with Malme-3M was 21.8 µM (inactive); in the test on NCI/ADR-RES, 20.8 µM (inactive); in the test on OVCAR-3, 10.3 µM (inactive); in the test with OVCAR-5, 41.2 µM (inactive); in the test on OVCAR-8 it was 15 µM (inactive); with SF-268, 23.5 µM (inactive). Further, the GI50 in the test with SF-539 is 8.57 µM (inactive); in the test with SK-MEL-5, 4.82 µM (inactive); in the test with SN12C, 17.8 µM (inactive); in the test with SNB-19, 23.2 µM (inactive); with TK-10, 20.8 µM (inactive); in the test on U-251, 28.1 µM (inactive). The GI50 in the test on UO-31 was 8.24 µM (inactive).
Turning to `CN(Cc1cnc2nc(N)nc(N)c2n1)c1ccc(C(=O)NC23CC4CC(CC(C4)C2)C3)cc1`, the GI50 was 3.13 µM (inactive) with ACHN; 10.4 µM (inactive) in the test with COLO 205; 4.71 µM in the test with HCT-15; 5.9 µM (inactive) in the test on IGROV-1; 14.1 µM (inactive) in the test on MDA-MB-231; 6.85 µM (inactive) in the test on Malme-3M. The GI50 was 42.8 µM (inactive) in the test on NCI/ADR-RES; 16.9 µM (inactive) in the test on OVCAR-3; 12.2 µM (inactive) with OVCAR-5; 7.35 µM (inactive) with OVCAR-8; 5.55 µM (inactive) in the test on SF-268; 4.19 µM (inactive) in the test with SK-MEL-5. Also, the GI50 with SN12C was 20.4 µM (inactive); with SNB-19, 6.52 µM (inactive); in the test with SR, 12.7 µM (inactive); with TK-10, 14.5 µM (inactive); in the test on U-251, 12 µM (inactive); in the test with UO-31, 11.8 µM (inactive).
Regarding `CC1=NN(c2cccc(Cl)c2)C2(C1=Cc1cccs1)C(Cl)C(=O)N2c1nc2ccccc2s1` (stereo not given), the GI50 in the test with ACHN was 20.8 µM (inactive); in the test with HCT-15, 20.6 µM; in the test with HT-29, 21.6 µM (inactive); in the test on IGROV-1 it was 28.6 µM (inactive); in the test with MDA-MB-231 it was 19.7 µM (inactive); in the test with NCI/ADR-RES it was 21.9 µM (inactive). Moreover, the GI50 with OVCAR-3 is 17.7 µM (inactive); with OVCAR-5 it was 18.2 µM (inactive); in the test with OVCAR-8, 20.4 µM (inactive); in the test on SF-268, 21.5 µM (inactive); in the test with SF-539, 15.2 µM (inactive); with SK-MEL-5 it was 17.4 µM (inactive). The GI50 with SR was 18.5 µM (inactive); in the test with TK-10, 28.6 µM (inactive); in the test on U-251, 15.1 µM (inactive); in the test on UO-31 it was 23.9 µM (inactive).
For `COC(=O)C1=C(C)NC(C)=C(C(=O)OC)C1c1nc2sccn2c1[N+](=O)[O-]`, the GI50 is > 100 µM (inactive) in the test on ACHN; > 100 µM (inactive) in the test on COLO 205; more than 100 µM in the test with HCT-15; > 100 µM (inactive) in the test with MDA-MB-231; > 100 µM (inactive) in the test with NCI/ADR-RES; > 100 µM (inactive) with OVCAR-3. Also, the GI50 in the test with OVCAR-5 was > 100 µM (inactive); with OVCAR-8, 79.4 µM (inactive); with SF-268, > 100 µM (inactive); with SF-539 it was 77.3 µM (inactive); with SK-MEL-5 it was > 100 µM (inactive); in the test on SN12C, > 100 µM (inactive). For the same compound, the GI50 with SNB-19, with SR, in the test on TK-10, with U-251 and in the test with UO-31 was > 100 µM (inactive) each time.
Consider `O=c1[nH]c(=O)n([C@@H]2O[C@H](CO)[C@@H](O)[C@@H]2F)cc1I` [FIALURIDINE], for which the GI50 with ACHN is > 100 µM (inactive); in the test on COLO 205 it was > 100 µM (inactive); in the test on HCT-15 it was more than 100 µM; in the test on HT-29, > 100 µM (inactive); in the test with IGROV-1, > 100 µM (inactive); in the test on MDA-MB-231, > 100 µM (inactive). Besides, the GI50 in the test with Malme-3M, in the test with NCI/ADR-RES, in the test with OVCAR-3, in the test on OVCAR-5, in the test on OVCAR-8 and in the test on SF-268 was > 100 µM (inactive) throughout. For the same compound, the GI50 in the test on SF-539, in the test on SK-MEL-5, with SN12C, in the test on SNB-19, in the test with TK-10 and in the test with U-251 was > 100 µM (inactive) each time. The GI50 in the test on UO-31 was > 100 µM (inactive).
